Experimental data reported in paper PMC9920986 (Molecules, 2023).
Like-named read-outs stand apart in the source and are kept apart here.

Legend:
[1] = Antiproliferative assay (MTT colorimetric test, 72 h); assay type: cell-based; settings: human, n.a. = not active, read-out: A549, CC50
Text: The cytotoxicity of the synthesized oxindoles was studied using the A549 cell line in which the levels of NQO2 are increased (Table 4). […] The cytotoxicity of the compounds may be due to the inhibition of other enzymes associated with the activation of apoptosis in cancer cells, for example GSK3b or tyrosine kinases, or with the general non-specific toxicity of these compounds. Thus, the influence of NQO2 on A549 cell viability has not been established.
The A549 cells were maintained in F12-K (Gibco, Paisley, UK) supplemented with 10% fetal bovine serum (FBS, Gibco, UK), penicillin (100 UI mL^−1), streptomycin (100 µg mL^−1) and GlutaMax (2 mM, Gibco, UK). All cells line were cultured under a humidified atmosphere of 95% air/5% CO2 at 37 °C. Subconfluent monolayers, in the log growth phase, were harvested by a brief treatment with TrypLE Express solution (Gibco, UK) in phosphate-buffered saline (PBS, Capricorn Scientific, Ebsdorfergrund, Germany) and washed three times in serum-free PBS. The number of viable cells was determined by trypan blue exclusion.
The effects of the synthesized compounds on cell viability were determined using the MTT colorimetric test. All examined cells were diluted with the growth medium to 3.5 × 10^4 cells per mL and the aliquots (7 × 10^3 cells per 200 μL) were placed in individual wells in 96-multiplates (Eppendorf, Germany) and incubated for 24 h. […] After incubation, the cells were then treated with 40 μL MTT solution (3-(4,5-dimethylthiazol-2-yl)-2,5-diphenyltetrazolium bromide, 5 mg mL^−1 in PBS) and incubated for 4 h. After an additional 4 h incubation, the medium with MTT was removed and DMSO (150 μL) was added to dissolve the formazan crystals. The plates were shaken for 10 min. The optical density of each well was determined at 560 nm using a microplate reader GloMax Multi+ (Promega, Madison, WI, USA). Each of the tested compounds was evaluated for cytotoxicity in three separate experiments.

[2] = target: T1, human recombinant NRH:quinone oxidoreductase (NQO2) (Homo sapiens, UniProt P16083); test: biochemical; settings: for inhibition at 10 µM: read-out: NQO2 Inhibition, %
T1 construct: purchased Sigma Q0380
T1 sequence (P16083 1-231): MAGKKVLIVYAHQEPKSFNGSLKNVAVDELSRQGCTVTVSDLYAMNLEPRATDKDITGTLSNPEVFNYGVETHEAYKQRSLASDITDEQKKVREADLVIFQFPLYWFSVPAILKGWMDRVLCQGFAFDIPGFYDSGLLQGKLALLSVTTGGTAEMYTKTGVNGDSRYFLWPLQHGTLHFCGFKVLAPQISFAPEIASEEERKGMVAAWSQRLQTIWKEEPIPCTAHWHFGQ
Method: The inhibition activity of all synthesized compounds at a concentration of 10 µM was preliminarily tested in vitro using human recombinant NRH:quinone oxidoreductase (NQO2).
The activity of recombinant human NQO2 (Sigma #Q0380, St. Louis, […], USA) was evaluated kinetically using menadione and N-benzyl-dihydronicotinamide (BNAH) as the substrate and co-substrate, respectively. All reagents and test compounds were dissolved in 50 mM Hepes-KOH (pH 7.4) containing 1 mM of β-octyl-D-glucopyranoside, 0.1 mg/mL BSA and 1 μM FAD. […] The solutions of the test compounds were pre-incubated for 5 min with 50 μL of human recombinant NQO2 (final concentration 42 ng/mL). Then, 25 μL of menadione was introduced at a final concentration of 100 μM. The reaction was started with 25 μL of 100 μM BNAH. The fluorescence of the co-substrate BNAH was followed at wavelengths of 370/440 nm at 37 °C using an Infinite M200 Pro microplate reader (Tecan, Grödig, Austria). The fluorescence data was fit according to a one-phase decay nonlinear regression to obtain slope values with Prism 8.0 (GraphPad Inc., San Diego, CA, USA). The activity in sample wells were normalized against negative control and enzyme-blank samples.

[3] = recombinant human NQO2, 100 μM menadione, 100 μM BNAH, read-out: NQO2 IC50 ± SEM

| SMILES | CC50 at 72 h [1] | IC50 [2] | further results |
| --- | --- | --- | --- |
| O=C1Nc2ccccc2C1=Cc1cccnc1 [Compound 7, 3-(3-pyridinylmethylidene)-2-oxindole] | 67.5 ± 7.58 µM | – | inhibition at 10 µM [2]: 59.2% |
| O=C1Nc2ccc(Br)cc2C1=Cc1ccc(Br)cc1 (mixture of isomers) [Compound 31, 3-(4-bromobenzylidene)-5-bromo-2-oxindole] | 242 ± 3.19 µM | – | inhibition at 10 µM [2]: 68.6% |
| Cc1ccc(C(=O)CC2(O)C(=O)Nc3ccccc32)cc1 (stereo not drawn) [Compound 52, 3-hydroxy-3-[2-(4-methylphenyl)-2-oxoethyl]-2-oxindole] | 171 ± 13.4 µM | – | IC50 [2, 3]: > 50 µM |
| O=C1Nc2ccc(Br)cc2C1=Cc1ccco1 [Compound 35, 5-bromo-3-(2-furylmethylidene)-2-oxindole] | 449 ± 18.7 µM | > 50 µM | – |
| COc1ccc2c(c1)C(O)(CC(=O)c1ccc(C)cc1)C(=O)N2 (stereo not drawn) [Compound 48, 3-hydroxy-5-methoxy-3-[2-(4-methylphenyl)-2-oxoethyl]-2-oxindole] | – | – | IC50 [2, 3]: > 50 µM |
| O=C1Nc2ccc(Br)cc2C1=Cc1cccnc1 [Compound 8, 5-bromo-3-(3-pyridinylmethylidene)-2-oxindole] | 22.3 ± 1.42 µM | – | inhibition at 10 µM [2]: 44.2% |
| O=C1Nc2ccccc2C1=Cc1ccco1 [Compound 34, 3-(2-furylmethylidene)-2-oxindole] | 595 ± 25.4 µM | – | inhibition at 10 µM [2]: 59.9% |
| O=C1Nc2ccccc2C1=Cc1ccncc1 [Compound 10, 3-(4-pyridinylmethylidene)-2-oxindole] | 80.3 ± 9.87 µM | – | IC50 [2, 3]: > 50 µM |
| CC(=O)Nc1ccc2c(c1)C(=Cc1cccc(O)c1)C(=O)N2 [Compound 13, 3-(3-hydroxybenzylidene)-5-acetylamino-2-oxindole] | 176 ± 4.76 µM | 0.64 ± 0.04 µM | – |
| COc1cc(C=C2C(=O)Nc3ccc(NC(=O)c4ccco4)cc32)cc(OC)c1OC [Compound 25, 3-(3,4,5-trimethoxybenzylidene)-5-furoylamino-2-oxindole] | 201 ± 22.7 µM | 0.66 ± 0.02 µM | – |
| O=C1Nc2ccc([N+](=O)[O-])cc2C1=Cc1cccnc1 [Compound 9, 5-nitro-3-(3-pyridinylmethylidene)-2-oxidole] | 429 ± 24 µM | > 50 µM | – |
| CN(C)c1ccc(C=C2C(=O)Nc3ccccc32)cc1 [Compound 30, (E,Z)-3-(4-Dimethylaminobenzylidene)-2-oxindole] | – | > 50 µM | – |
| COc1cc(C=C2C(=O)Nc3ccc(NC(=O)c4ccccc4)cc32)cc(OC)c1O [Compound 26, (E,Z)-3-(3,5-Dimethoxy-4-hydroxybenzylidene)-5-benzoylamino-2-oxindole] | – | – | inhibition at 10 µM [2]: 40.5% |
| O=C1Nc2ccc(NC(=O)c3ccccc3)cc2C1=Cc1ccc([N+](=O)[O-])cc1 (mixture of isomers) [Compound 29, 5-benzoylamino-3-((4-nitrophenyl)methylene)-2-oxindole] | – | > 50 µM | – |
| CC(=O)Nc1ccc2c(c1)C(=Cc1ccc(O)cc1)C(=O)N2 [Compound 16, (E,Z)-3-(4-Hydroxybenzylidene)-5-acetamido-2-oxindole] | – | – | IC50 [2, 3]: 0.99 ± 0.03 µM |
| O=C1Nc2ccccc2C1=Cc1cccs1 [Compound 37, 3-(2-thienylmethylidene)-2-oxindole] | 491 ± 19.9 µM | – | inhibition at 10 µM [2]: 38.1% |
| Cc1nn(-c2ccccc2)c(C)c1C=C1C(=O)Nc2ccccc21 [Compound 44, 3-((3,5-dimethyl-1-phenyl-1H-pyrazol-4-yl)methylene)-2-oxindole] | – | – | inhibition at 10 µM [2]: 43.6% |
| Cc1n[nH]c(C)c1C=C1C(=O)Nc2ccccc21 [Compound 42, 3-((3,5-dimethyl-1H-pyrazol-4-yl)methylene)-2-oxindole] | – | – | inhibition at 10 µM [2]: 54.4% |
| COc1cc(C=C2C(=O)Nc3ccccc32)cc(OC)c1OC [Compound 23, (E,Z)-3-(3,4,5-Trimethoxybenzylidene)-2-oxindole] | 25.7 µM | – | IC50 [2, 3]: 1.6 ± 0.14 µM |
| CN1C(=O)C(=Cc2ccc(O)cc2)c2ccccc21 [Compound 15, 3-(4-hydroxybenzylidene)-N-methyl-2-oxindole] | – | – | IC50 [2, 3]: 0.62 ± 0.04 µM |

| SMILES | CC50 at 72 h [1] | IC50 [2] | further results |
| --- | --- | --- | --- |
| COc1ccc(C=C2C(=O)Nc3ccccc32)cc1 [Compound 20, 3-((4-methoxyphenyl)methylene)-2-oxindole] | 54.8 µM | – | inhibition at 10 µM [2]: 40.8% |
| O=C1Nc2ccccc2C1=Cc1ccc(O)cc1 [Compound 14, 3-(4-hydroxybenzylidene)-2-oxindole] | 80.9 ± 12.2 µM | > 50 µM | – |
| O=C1Nc2ccc([N+](=O)[O-])cc2C1=Cc1ccccn1 [Compound 4, 5-nitro-3-(2-pyridinylmethylidene)-2-oxindole] | – | > 50 µM | – |
| CN1C(=O)C(=Cc2ccccn2)c2ccccc21 [Compound 2, N-methyl-3-((pyridin-2-yl)methylene)-2-oxindole] | – | 16.78 ± 0.09 µM | – |
| O=C1Nc2ccc([N+](=O)[O-])cc2C1=Cc1ccncc1 [Compound 12, 5-nitro-3-(4-pyridinylmethylidene)-2-oxindole] | – | – | IC50 [2, 3]: > 50 µM |
| O=C1Nc2ccc([N+](=O)[O-])cc2C1=Cc1ccco1 [Compound 36, 5-nitro-3-(2-furylmethylidene)-2-oxindole] | 329 ± 17 µM | – | inhibition at 10 µM [2]: 59.5% |
| CCOC(=O)c1[nH]ncc1C=C1C(=O)Nc2ccccc21 [Compound 39, 3-((5-ethoxycarbonyl-1H-pyrazol-4-yl)methylene)-2-oxindole] | 231 µM | – | – |
| COC(=O)CCn1cc(C=C2C(=O)Nc3ccccc32)cn1 [Compound 45, (E,Z)-3-(1-[2-(Methoxycarbonyl)ethyl]-1H-pyrazol-4-ylmethylidene)-2-oxindole] | – | > 50 µM | – |
| COC(=O)Nc1ccc2c(c1)C(=Cc1ccc([N+](=O)[O-])cc1)C(=O)N2 [Compound 28, 3-(4-nitrobenzylidene)-5-(methoxycarbonylamino)-2-oxindole] | – | – | inhibition at 10 µM [2]: 74% |
| CCOC(=O)c1[nH]ncc1C=C1C(=O)Nc2ccc([N+](=O)[O-])cc21 [Compound 40, 3-((5-ethoxycarbonyl-1H-pyrazol-4-yl)methylene)-5-nitro-2-oxindole] | – | 1.88 ± 0.08 µM | – |
| COC(=O)Nc1ccc2c(c1)C(=Cc1ccc(Br)cc1)C(=O)N2 [Compound 32, 3-(4-bromobenzylidene)-5-(methoxycarbonylamino)-2-oxindole] | – | 0.61 ± 0.03 µM | – |
| O=C1Nc2ccccc2C1=Cc1ccc([N+](=O)[O-])cc1 [Compound 27, 3-((4-nitrophenyl)methylene)-2-oxindole] | – | > 50 µM | – |
| O=c1c(O)c(-c2ccc(O)c(O)c2)oc2cc(O)cc(O)c12 [Quercetin, reference compound] | – | – | IC50 [2, 3]: 0.08 ± 0.02 µM |
| Nc1ccc2c(c1)C(Cc1ccccn1)C(=O)N2 (stereo not drawn) [Compound 47, 3-(pyridin-2-ylmethyl)-5-amino-2-oxindole] | – | – | IC50 [2, 3]: > 50 µM |
| Cc1ccc(C(=O)CC2(O)C(=O)Nc3ccc(NC(=O)c4ccco4)cc32)cc1 (stereo not drawn) [Compound 51, 3-hydroxy-5-(2-furoylamino)-3-[2-(4-methylphenyl)-2-oxoethyl]-2-oxindole] | – | > 50 µM | – |
| Nc1ccc(CC2C(=O)Nc3ccccc32)cc1 (stereo not drawn) [Compound 46, 3-(4-aminobenzyl)-2-oxindole] | – | > 50 µM | – |
| CCOc1ccc(/C=C2/C(=O)Nc3ccccc32)cc1 [Compound 22, (E)-3-(4-Ethoxybenzylidene)-2-oxindole] | – | – | IC50 [2, 3]: > 50 µM |
| Cn1cc(C=C2C(=O)Nc3ccccc32)cn1 [Compound 41, 3-((1-methyl-1H-pyrazol-4-yl)methylene)-2-oxindole] | – | 9.4 ± 0.12 µM | – |
| Cc1ccc(C(=O)CC2(O)C(=O)Nc3ccc(Br)cc32)cc1 (stereo not drawn) [Compound 49, 3-hydroxy-5-bromo-3-[2-(4-methylphenyl)-2-oxoethyl]-2-oxindole] | – | – | IC50 [2, 3]: > 50 µM |
